Source: US11970497B2, “Tricyclic AKR1C3 dependent KARS inhibitors” (Novartis AG, priority 2019, dated 2024)

Key:
[1] = tested on: NCI-H1944 (KEAP1 mutant, AKR1C3 expressing) cell line derived lung cancer xenografts; assay: PK/PD in NCI-H1944 xenograft (tumor DDIT3 and EGR1 mRNA induction); format: in vivo, mice; conditions: single oral administration
Procedure: Compound 40 Dose Dependent Pharmacokinetics and Pharmacodynamic (PK/PD) Changes in the KEAP1 Mutant AKR1C3 Expressing Human Lung Cancer Xenograft NCI-H1944
The PK/PD relationship of Compound 40 was assessed in nude mice with established subcutaneous NCI-H1944 (KEAP1 mutant, AKR1C3 expressing) cell line derived lung cancer xenografts (FIG. 2). After a single oral administration of Compound 40, blood and tumor were collected to explore the PK profile of Compound 40 levels in blood and tumor. Compound 152, the active metabolite of the prodrug Compound 40 that inhibits KARS was also measured in tumor and blood. The PK data were compared to the tumor PD marker readouts of DDIT3 and EGR1 mRNA induction, downstream transcriptional readouts of KARS inhibition.

Human KARS = molecular target: T1, Human KARS (Homo sapiens, UniProt Q15046); assay: KARS AMP Transcreener FP assay; format: biochemical; conditions: 50 nM human KARS, 20 μM ATP, 50 μM L-Lysine, 1 μM tRNA, 2 h at RT; read-out: Human KARS Transcreener AMP assay Qualified absolute AC50
T1 construct: Human KARS protein (residues 70-584) was expressed and purified; made in house
Text: KARS AMP Transcreener FP Assay to Measure Inhibition of KARS Enzymatic Activity
Lysine-tRNA synthetase (KARS) is an enzyme that catalyzes the reaction of ATP, L-lysine, and tRNA(Lys) to form AMP, diphosphate, and L-lysyl-tRNA(Lys).
The Transceener® AMP/GMP (BellBrook Labs, Madison, WI, USA) is a far red, competitive fluorescence polarization (FP) immunoassay based on the detection of AMP, which is one of the products of aminoacylation of tRNA. In this assay, a fluorescently labeled AMP (AMP Alexa Fluor 633) is used as the tracer that can be recognized by a specific antibody. In the absence of AMP, all the tracer molecules are bound to the antibodies leading to large polarization. The AMP product generated by the enzyme reaction will compete with the tracer for binding to the antibody which leads to a decrease in the polarization. As such, the enzyme activity is inversely proportional to FP values.
Human KARS protein (residues 70-584) was expressed and purified using a similar protocol to what is described in literature (Crystal structure of tetrameric form of human lysyl-tRNA synthetase: Implications for multisynthetase complex formation Guo, M., Ignatov, M., Musier-Forsyth, K., Schimmel, P., Yang, X. L. (2008) Proc. Natl. Acad. Sci. Usa 105: 2331-2336).
The KARS enzyme assay was performed in a final volume of 10 μL per well of Corning Costar 384 well plate, flat bottom, black non-treated plate. The final assay concentration was 20 mM HEPES pH 7.5, 1 mM DTT, 50 nM human KARS, 20 μM ATP, 50 μM L-Lysine, 1 μM tRNA and 8 mM MgCl2. Compounds were serial diluted 1:3 in DMSO in a master plate to generate a 10 concentration points dose response with maximum concentration of 10 mM. 50 nL from compound master plate were spotted in each well of a 384 black plate (Corning 3573), and 5 μL of enzyme mixture containing 100 nM KARS diluted in assay buffer (20 mM HEPES pH 7.5 and 1 mM OTT) were added. The reaction was started by adding 5 μL of the substrate mixture containing 40 μM ATP (final 20 μM ATP), 100 μM L-Lysine (final 50 μM), 2 μM tRNA (final 1 μM), 16 mM MgCl2 (final 8 mM MgCl2) diluted in assay buffer (20 mM HEPES pH 7.5 and 1 mM OTT). The mixtures were mixed and incubated for 2 h at RT before the termination of the reaction.
Transcreener® stop and detection buffers were prepared (1× stop buffer [final: 0.5×], 2 nM Tracer [final: 1 nM] and 5 μg/ml anti-AMP antibody [final: 2.5 μg/ml] in deionized water) and 10 μL of the stop and detection mix were added to the reaction wells, mixed for a minute and centrifuged at 1000 rpm for 10 seconds. The plates were read after incubating at RT for 30-60 min using Infinite® M1000 with the following settings: Excitation wavelength: 635 nm; Emission wavelength: 680 nm. FP values of DMSO controls were used to normalize the data and calculate IC50s of compounds using the Helios Software suite.

[2] = tested on: NCI-H460 human lung cancer xenograft; assay: In vivo efficacy in NCI-H460 xenograft; set-up: species or system mice; conditions: for ΔT/ΔC: qd, Day 18
Procedure: Compound 40 Dose Dependent In Vivo Efficacy in the KEAP1 Mutant and Moderately AKR1C3 Expressing Human Lung Cancer Xenograft NCI-H460
Anti-cancer efficacy of Compound 40 was assessed in the NCI-H460 human lung cancer xenograft model in mice that expresses moderate levels of AKR1C3. NCI-H460 tumors were established in nude female mice by injection of a tumor cells subcutaneously. When tumors reached approximately 200 mm^3, mice were randomized according to tumor volume into treatment groups (n=7 per group) on Day 8.

T1 sequence (Q15046 70-584): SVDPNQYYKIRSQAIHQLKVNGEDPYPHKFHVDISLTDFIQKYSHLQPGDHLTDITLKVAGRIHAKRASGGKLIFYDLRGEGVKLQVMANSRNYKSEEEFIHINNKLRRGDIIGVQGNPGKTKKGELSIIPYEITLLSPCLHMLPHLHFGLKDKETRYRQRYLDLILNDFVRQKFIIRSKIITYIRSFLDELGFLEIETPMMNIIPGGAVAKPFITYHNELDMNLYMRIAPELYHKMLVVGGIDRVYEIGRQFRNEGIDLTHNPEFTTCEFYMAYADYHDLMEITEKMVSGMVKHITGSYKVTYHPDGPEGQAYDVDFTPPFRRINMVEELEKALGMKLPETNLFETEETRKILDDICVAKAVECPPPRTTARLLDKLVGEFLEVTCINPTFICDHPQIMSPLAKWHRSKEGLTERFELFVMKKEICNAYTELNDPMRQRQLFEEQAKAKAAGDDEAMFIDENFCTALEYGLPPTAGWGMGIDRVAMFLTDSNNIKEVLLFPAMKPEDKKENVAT

**Q.** For `O=C1CC2(CCN(C(=O)NCc3ccc(F)cc3)CC2)Nc2ccc(F)cc21` [Example 40], which “duration of the induction of DDIT3 and EGR1 mRNA levels” value ([1]; dose escalation, NCI-H1944 xenografts) is on record?
**A.** increased with dose escalation

**Q.** What about the “tumor PD markers (DDIT3 and EGR1 mRNA induction) after dosing” value ([1]; nude mice with NCI-H1944 xenografts) of the same molecule?
**A.** remained elevated for 24 hours post-dose

**Q.** And the AC50 (Human KARS)?
**A.** > 10 µM

**Q.** What about the “Tumor response” value ([2]; 75 mg/kg qd) of the same molecule?
**A.** clear reduction in efficacy

**Q.** And the ΔT/ΔC ([2]; 75 mg/kg, po)?
**A.** 25.9%

**Q.** What about the “Tumor response” value ([2]; 150 mg/kg qd) of the same molecule?
**A.** some reduction in efficacy

**Q.** And the ΔT/ΔC ([2]; 150 mg/kg, po)?
**A.** 5.6%

**Q.** And the ΔT/ΔC ([2]; 300 mg/kg po)?
**A.** 1.8%

**Q.** What about the “Tumor response” value ([2]; 300 mg/kg qd) of the same molecule?
**A.** Tumor stasis
